Results taken from a compilation of properties of binary mixtures (doi:10.1016/j.molliq.2020.113742).

Assay: xn = mol fraction of the nth substance listed

CCCC[N+]1(C)CCCCC1.F[P-](F)(F)(F)(F)F + CCCC[N+]1(C)CCCC1.F[P-](F)(F)(F)(F)F
viscosity [mPa·s], 102 kPa
Settings | 353.15 K | 363.15 K | 373.15 K | 383.15 K
x1 = 0.3 | 126 | 85 | 58 | –
x1 = 0.5 | – | 101 | 68 | 48
x1 = 0.7 | 194 | 125 | 84 | 59

CCCC[N+]1(C)CCCC1.F[P-](F)(F)(F)(F)F + CCCC[n+]1cccc(C)c1.F[P-](F)(F)(F)(F)F
viscosity [mPa·s], 101.3 kPa
Settings | x2 = 0.2 | x2 = 0.3 | x2 = 0.4 | x2 = 0.5 | x2 = 0.6 | x2 = 0.7 | x2 = 0.8 | x2 = 0.9
303.13 K | – | – | 746 | – | – | – | – | –
308.15 K | – | – | – | 480 | 427 | – | – | –
313.15 K | – | 448 | – | 352 | 313 | 277 | – | –
318.15 K | – | 334 | – | – | 234 | 208 | 190 | –
323.15 K | – | 253 | 220 | 199 | 178 | 159 | 146 | 130
328.15 K | 221 | 195 | – | 153 | 138 | – | 113 | –
333.15 K | 173 | 153 | 133 | 121 | – | 97 | 89 | 80
338.15 K | 138 | 121 | 106 | – | 87 | 78 | 71 | 65
343.15 K | – | 98 | – | 78 | – | 63 | 58 | 53
348.15 K | 90 | 79 | 70 | 63 | – | 52 | 48 | 43
353.15 K | 74 | 65 | – | 53 | 48 | 43 | 40 | 36
358.15 K | – | 55 | – | 44 | 40 | 36 | 33 | 30
363.15 K | 51 | 46 | 41 | – | – | 31 | 28 | 26
